Test results published in ChEMBL document CHEMBL3885881, “DrugMatrix”.

Species on record: Rattus norvegicus
Test: DrugMatrix - Regimen: Daily Repeat
Assay type: toxicity, organism-based, Sprague-Dawley
Parameters: regimen Daily Repeat, gender Male, age 6-8 weeks
Settings: in vivo, po, route oral GAVAGE, vehicle .5 % CMC; for BASOPHIL / EOSINOPHIL / ERYTHROCYTE COUNT / HEMATOCRIT / HEMOGLOBIN / LEUKOCYTE COUNT / LYMPHOCYTE / MEAN CORPUSCULAR HEMOGLOBIN / MEAN CORPUSCULAR HEMOGLOBIN CONCENTRATION / MEAN CORPUSCULAR VOLUME / MONOCYTE / NEUTROPHIL / PLATELET COUNT: tissue Blood; for ALANINE AMINOTRANSFERASE / ALBUMIN / ALKALINE PHOSPHATASE / ASPARTATE AMINOTRANSFERASE / BLOOD UREA NITROGEN / CHLORIDE / CHOLESTEROL / CREATINE PHOSPHOKINASE / CREATININE / GLUCOSE / PHOSPHORUS / POTASSIUM / SODIUM / TOTAL BILIRUBIN / TOTAL PROTEIN: tissue Plasma
[1] = 0 mg/kg, 72 h, dose level Control, time 3 day
[2] = 0 mg/kg, 120 h, dose level Control, time 5 day
[3] = 38 mg/kg, 72 h, dose level Low, time 3 day
[4] = 38 mg/kg, 120 h, dose level Low, time 5 day
[5] = 269 mg/kg, 72 h, dose level High, time 3 day
[6] = 269 mg/kg, 120 h, dose level High, time 5 day

In the case of `CCCNC(=O)NS(=O)(=O)c1ccc(Cl)cc1` [CHLORPROPAMIDE], the BASOPHIL [1] is reported as 0%, the EOSINOPHIL [1] is reported as 0.33% and the “ERYTHROCYTE COUNT” value [1] is reported as 6.2 x10E6/uL. The HEMATOCRIT [1] was 38.08%, the HEMOGLOBIN [1] was 14.92 G/DL and the “LEUKOCYTE COUNT” value [1] was 11.13 x10E3/uL. For the same molecule, the LYMPHOCYTE [1] was 76%, the “MEAN CORPUSCULAR HEMOGLOBIN” value [1] was 24.1 pg and the “MEAN CORPUSCULAR HEMOGLOBIN CONCENTRATION” value [1] was 39.17 G/DL. For the same molecule, the “MEAN CORPUSCULAR VOLUME” value [1] was 61.48 fL, the MONOCYTE [1] was 3.83% and the NEUTROPHIL [1] was 19.83%. The “PLATELET COUNT” value [1] was 1327.5 x10E3/uL, the “ALANINE AMINOTRANSFERASE” value [1] was 40.17 u/L and the ALBUMIN [1] was 4.07 G/DL. The “ALKALINE PHOSPHATASE” value [1] was 372 u/L, the “ASPARTATE AMINOTRANSFERASE” value [1] was 67.17 u/L and the “BLOOD UREA NITROGEN” value [1] was 18.83 mg/dL. For the same molecule, the CHLORIDE [1] was 105.17 MEQ/L, the CHOLESTEROL [1] was 78.17 mg/dL and the “CREATINE PHOSPHOKINASE” value [1] was 149.17 u/L. For the same molecule, the CREATININE [1] was 0.57 mg/dL, the GLUCOSE [1] was 185.17 mg/dL and the PHOSPHORUS [1] was 11.43 mg/dL. For the same molecule, the POTASSIUM [1] was 6.78 MEQ/L, the SODIUM [1] was 152.83 MEQ/L and the “TOTAL BILIRUBIN” value [1] was 0.4 mg/dL. The “TOTAL PROTEIN” value [1] was 6.87 G/DL, the BASOPHIL [2] was 0% and the EOSINOPHIL [2] was 0%. The “ERYTHROCYTE COUNT” value [2] was 6.05 x10E6/uL, the HEMATOCRIT [2] was 36.55% and the HEMOGLOBIN [2] was 14.7 G/DL. The “LEUKOCYTE COUNT” value [2] was 11.8 x10E3/uL, the LYMPHOCYTE [2] was 86.83% and the “MEAN CORPUSCULAR HEMOGLOBIN” value [2] was 24.37 pg. For the same molecule, the “MEAN CORPUSCULAR HEMOGLOBIN CONCENTRATION” value [2] was 40.32 G/DL, the “MEAN CORPUSCULAR VOLUME” value [2] was 60.47 fL and the MONOCYTE [2] was 0.83%. For the same molecule, the NEUTROPHIL [2] was 12.33%, the “PLATELET COUNT” value [2] was 1177 x10E3/uL and the “ALANINE AMINOTRANSFERASE” value [2] was 41.83 u/L. The ALBUMIN [2] was 3.75 G/DL, the “ALKALINE PHOSPHATASE” value [2] was 377.5 u/L and the “ASPARTATE AMINOTRANSFERASE” value [2] was 60.83 u/L. For the same molecule, the “BLOOD UREA NITROGEN” value [2] was 16 mg/dL, the CHLORIDE [2] was 105.67 MEQ/L and the CHOLESTEROL [2] was 67.83 mg/dL. The “CREATINE PHOSPHOKINASE” value [2] was 120.33 u/L, the CREATININE [2] was 0.6 mg/dL and the GLUCOSE [2] was 167.67 mg/dL. For the same molecule, the PHOSPHORUS [2] was 10.03 mg/dL, the POTASSIUM [2] was 6.68 MEQ/L and the SODIUM [2] was 150.5 MEQ/L. For the same molecule, the “TOTAL BILIRUBIN” value [2] was 0.57 mg/dL, the “TOTAL PROTEIN” value [2] was 6.25 G/DL and the BASOPHIL [3] was 0%. The EOSINOPHIL [3] was 0%, the “ERYTHROCYTE COUNT” value [3] was 5.72 x10E6/uL and the HEMATOCRIT [3] was 35.8%. The HEMOGLOBIN [3] was 13.93 G/DL, the “LEUKOCYTE COUNT” value [3] was 12.2 x10E3/uL and the LYMPHOCYTE [3] was 81%. For the same molecule, the “MEAN CORPUSCULAR HEMOGLOBIN” value [3] was 24.4 pg, the “MEAN CORPUSCULAR HEMOGLOBIN CONCENTRATION” value [3] was 38.9 G/DL and the “MEAN CORPUSCULAR VOLUME” value [3] was 62.73 fL. For the same molecule, the MONOCYTE [3] was 1.67%, the NEUTROPHIL [3] was 17.33% and the “PLATELET COUNT” value [3] was 1327 x10E3/uL. For the same molecule, the “ALANINE AMINOTRANSFERASE” value [3] was 39.33 u/L, the ALBUMIN [3] was 3.73 G/DL and the “ALKALINE PHOSPHATASE” value [3] was 318.67 u/L. The “ASPARTATE AMINOTRANSFERASE” value [3] was 61.33 u/L, the “BLOOD UREA NITROGEN” value [3] was 14.33 mg/dL and the CHLORIDE [3] was 105.67 MEQ/L. The CHOLESTEROL [3] was 77.33 mg/dL, the “CREATINE PHOSPHOKINASE” value [3] was 126.33 u/L and the CREATININE [3] was 0.57 mg/dL. The GLUCOSE [3] was 180.33 mg/dL, the PHOSPHORUS [3] was 11.27 mg/dL and the POTASSIUM [3] was 6.7 MEQ/L. The SODIUM [3] was 151.33 MEQ/L, the “TOTAL BILIRUBIN” value [3] was 0.33 mg/dL and the “TOTAL PROTEIN” value [3] was 6.07 G/DL. The BASOPHIL [4] was 0%, the EOSINOPHIL [4] was 0.33% and the “ERYTHROCYTE COUNT” value [4] was 6.28 x10E6/uL. For the same molecule, the HEMATOCRIT [4] was 38.47%, the HEMOGLOBIN [4] was 15 G/DL and the “LEUKOCYTE COUNT” value [4] was 16.07 x10E3/uL. For the same molecule, the LYMPHOCYTE [4] was 86.67%, the “MEAN CORPUSCULAR HEMOGLOBIN” value [4] was 23.93 pg and the “MEAN CORPUSCULAR HEMOGLOBIN CONCENTRATION” value [4] was 39 G/DL. The “MEAN CORPUSCULAR VOLUME” value [4] was 61.4 fL, the MONOCYTE [4] was 1.67% and the NEUTROPHIL [4] was 11.33%. For the same molecule, the “PLATELET COUNT” value [4] was 1190.33 x10E3/uL, the “ALANINE AMINOTRANSFERASE” value [4] was 35.67 u/L and the ALBUMIN [4] was 3.7 G/DL. The “ALKALINE PHOSPHATASE” value [4] was 350 u/L, the “ASPARTATE AMINOTRANSFERASE” value [4] was 61.33 u/L and the “BLOOD UREA NITROGEN” value [4] was 14.33 mg/dL. For the same molecule, the CHLORIDE [4] was 106.33 MEQ/L, the CHOLESTEROL [4] was 65 mg/dL and the “CREATINE PHOSPHOKINASE” value [4] was 140.67 u/L. For the same molecule, the CREATININE [4] was 0.6 mg/dL, the GLUCOSE [4] was 178 mg/dL and the PHOSPHORUS [4] was 11 mg/dL. The POTASSIUM [4] was 6.43 MEQ/L, the SODIUM [4] was 149.33 MEQ/L and the “TOTAL BILIRUBIN” value [4] was 0.37 mg/dL. For the same molecule, the “TOTAL PROTEIN” value [4] was 6.1 G/DL, the BASOPHIL [5] was 0% and the EOSINOPHIL [5] was 0.33%. The “ERYTHROCYTE COUNT” value [5] was 6.04 x10E6/uL, the HEMATOCRIT [5] was 37% and the HEMOGLOBIN [5] was 14.33 G/DL. The “LEUKOCYTE COUNT” value [5] was 8.83 x10E3/uL, the LYMPHOCYTE [5] was 83.67% and the “MEAN CORPUSCULAR HEMOGLOBIN” value [5] was 23.93 pg. For the same molecule, the “MEAN CORPUSCULAR HEMOGLOBIN CONCENTRATION” value [5] was 38.77 G/DL, the “MEAN CORPUSCULAR VOLUME” value [5] was 61.6 fL and the MONOCYTE [5] was 2%. The NEUTROPHIL [5] was 14%, the “PLATELET COUNT” value [5] was 1429 x10E3/uL and the “ALANINE AMINOTRANSFERASE” value [5] was 26 u/L. For the same molecule, the ALBUMIN [5] was 3.83 G/DL, the “ALKALINE PHOSPHATASE” value [5] was 312 u/L and the “ASPARTATE AMINOTRANSFERASE” value [5] was 48.33 u/L. The “BLOOD UREA NITROGEN” value [5] was 17 mg/dL, the CHLORIDE [5] was 109.33 MEQ/L and the CHOLESTEROL [5] was 73 mg/dL. The “CREATINE PHOSPHOKINASE” value [5] was 142 u/L, the CREATININE [5] was 0.53 mg/dL and the GLUCOSE [5] was 163.33 mg/dL. The PHOSPHORUS [5] was 9.83 mg/dL, the POTASSIUM [5] was 5.8 MEQ/L and the SODIUM [5] was 151.33 MEQ/L. For the same molecule, the “TOTAL BILIRUBIN” value [5] was 0.17 mg/dL, the “TOTAL PROTEIN” value [5] was 6.3 G/DL and the BASOPHIL [6] was 0%. The EOSINOPHIL [6] was 0%, the “ERYTHROCYTE COUNT” value [6] was 5.62 x10E6/uL and the HEMATOCRIT [6] was 33.9%. The HEMOGLOBIN [6] was 14.07 G/DL, the “LEUKOCYTE COUNT” value [6] was 10.7 x10E3/uL and the LYMPHOCYTE [6] was 76.67%. For the same molecule, the “MEAN CORPUSCULAR HEMOGLOBIN” value [6] was 25.07 pg, the “MEAN CORPUSCULAR HEMOGLOBIN CONCENTRATION” value [6] was 41.53 G/DL and the “MEAN CORPUSCULAR VOLUME” value [6] was 60.37 fL. The MONOCYTE [6] was 2.33%, the NEUTROPHIL [6] was 21% and the “PLATELET COUNT” value [6] was 995.67 x10E3/uL. For the same molecule, the “ALANINE AMINOTRANSFERASE” value [6] was 34.67 u/L, the ALBUMIN [6] was 3.7 G/DL and the “ALKALINE PHOSPHATASE” value [6] was 315.33 u/L. The “ASPARTATE AMINOTRANSFERASE” value [6] was 55.33 u/L, the “BLOOD UREA NITROGEN” value [6] was 16.33 mg/dL and the CHLORIDE [6] was 112.33 MEQ/L. For the same molecule, the CHOLESTEROL [6] was 71.33 mg/dL, the “CREATINE PHOSPHOKINASE” value [6] was 127.33 u/L and the CREATININE [6] was 0.6 mg/dL. For the same molecule, the GLUCOSE [6] was 173.33 mg/dL, the PHOSPHORUS [6] was 10.27 mg/dL and the POTASSIUM [6] was 5.83 MEQ/L. For the same molecule, the SODIUM [6] was 155 MEQ/L, the “TOTAL BILIRUBIN” value [6] was 0.23 mg/dL and the “TOTAL PROTEIN” value [6] was 6.1 G/DL.
